US20230027066A1 (Urovant Sciences GmbH, priority 2019, published 2023)

Test system: men and women with overactive bladder
Test: Phase 3 study of vibegron 75 mg vs placebo and tolterodine ER 4 mg, 12 weeks, efficacy (voiding and urine volume diary)
Format: in vivo, human
Details: for Patients with at Least 75% Reduction in Total Incontinence, Adjusted (%) / Patients with at Least 75% Reduction in Total Incontinence, Adjusted n / Patients with at Least 75% Reduction in Total Incontinence, Unadjusted (%) / Patients with at Least 75% Reduction in Total Incontinence, Unadjusted n / Total Incontinence 75% responders, Active - Placebo CMH Difference: FAS-I
Method: Enrollment of patients included individuals with OAB Wet (those with UUI, the involuntary loss of urine accompanied by urgency) and OAB Dry (those without UUI). A total of 1,518 patients were randomized across 215 study sites into one of three groups for a 12-week treatment period.
The study consisted of a Screening Period (1 to 5 weeks), a single-blind Run-in Period (2 weeks), a randomized double-blind Treatment Period (12 weeks), and a Follow-up Period (4 weeks).
Tolterodine ER 4 mg was the active control. […] Between the Baseline and Week 12 Visits, patients had study assessments at Week 4 and Week 8.
The Patient Voiding Diary was used by participants (via the eDiary or paper Diary) to record the frequency of daily OAB symptoms including all micturitions, urgency, incontinence, and main reason for incontinence by selecting the respective box for each symptom occurring during the course of a given day and night.
Urine volume data were collected separately by patients using the Urine Volume component of the eDiary, or the paper Urine Volume Chart. The Urine Volume Chart is a tool used in clinical practice and clinical investigation to assess voiding functions over a 24-hour period and is regarded as a useful instrument in the investigation of patients with voiding symptoms. Urine volume may be collected during any one (1) of the 7 Diary Days prior to the visit, and it should be recorded for ˜24 hours starting from the time the patient gets up for the day and continues until the time the patient gets up for the day on the next day.
For the purpose of this study, the number of micturitions was defined as the number of times a patient has voided in the toilet as indicated on the Patient Voiding Diary. Average daily micturitions were calculated using the daily entries in the Patient Voiding Diary, which was completed over the 7 days prior to each study visit. Average daily number of micturitions were calculated as the total number of micturitions that occurred on a Complete Diary Day divided by the number of Complete Diary Days in the Patient Voiding Diary. A complete diary day required confirmation by the patient in the Patient Voiding Diary that all voids and leakages had been recorded for the diary day. Baseline was defined as the average number of micturitions occurring during the last evaluable diary prior to the Baseline Visit.
The number of UUI episodes was defined as the number of times a patient had checked “urge” as the reason for accidental urine leakage. Average daily UUI episodes at each study visit were calculated in the same manner as described above for the micturition endpoint. The UUI endpoint were analyzed using only OAB Wet patients.
For the analysis of the co-primary endpoints (change from baseline in average number of daily micturitions at Week 12 and change from baseline in average number of daily urge urinary incontinence episodes at Week 12, and placebo adjustment of each), a mixed model for repeated measure (MMRM) with restricted maximum likelihood estimation was used. This model corrects for dropout and accounts for the fact that measurements taken on the same patient over time tend to be correlated by using all available information on patients within the same covariate set to derive an estimate of the treatment effect for a dropout-free population. The analysis model for each efficacy endpoint includes terms for treatment, visit, OAB Type (Wet vs Dry), Sex (Female vs Male), Region (US vs Rest of World), baseline score, and interaction of visit by treatment.
Primary inferences were drawn from treatment differences for the changes from baseline derived from the MMRM models at Week 12. As part of secondary objectives, the treatment differences for each post baseline visit were also derived using the same MMRM model. […]

[1] = Week 12, events of Events/Censored
[2] = Week 12, subpopulation Age ≥65 years
[3] = vibegron 75 mg or tolterodine ER 4 mg
[4] = vibegron 75 mg or tolterodine ER 4 mg once daily
[5] = vibegron 75 mg or tolterodine ER 4 mg once daily, OAB Wet
[6] = vibegron 75 mg or tolterodine ER 4 mg, OAB Wet

For `Cc1ccc(O)c([C@H](CCN(C(C)C)C(C)C)c2ccccc2)c1` [Tolterodine ER, tolterodine, reference compound], the “Micturitions, Week 12 LS Mean Change from Baseline (Placebo-Adjusted)” value (Week 12, co-primary endpoint) was −0.3, the “UUI Episodes, Week 12 LS Mean Change from Baseline (Placebo-Adjusted)” value (Week 12, co-primary endpoint) was −0.4 and the “First 50% Reduction in Urgency Episodes, Events” value [1] was 164/253. For the same compound, the “First 100% Reduction in UUI Episodes, Events” value [1] was 74/245, the “Total Incontinence Episodes, Week 12 LS Mean Change from Baseline (Placebo-Adjusted)” value (Week 12, secondary endpoint) was −0.5 and the “Urgency Episodes, Week 12 LS Mean Change from Baseline (Placebo-Adjusted)” value (Week 12, secondary endpoint) was −0.4. The “Micturitions, change at Week 12, mean (SD)” value [2] was −1.48 (2.15), the “UUI Episodes, change at Week 12, mean (SD)” value [2] was −1.80 (2.41) and the “Daily Urgency, change at Week 12” value (Week 12, subpopulation Age ≥65 years, posthoc analysis) was −2.1. For the same compound, the “Micturitions: Week 12 CFB Mean (descriptive statistics)” value (Week 12, ≥65 yrs) was −1.48, the “Patients with at Least 75% Reduction in Total Incontinence, Adjusted (%)” value (baseline to Week 2) was 16.5% and the “Patients with at Least 75% Reduction in Total Incontinence, Adjusted n” value (baseline to Week 2) was 53. The “Patients with at Least 75% Reduction in Total Incontinence, Unadjusted (%)” value (baseline to Week 2) was 18.2%, the “Patients with at Least 75% Reduction in Total Incontinence, Unadjusted n” value (baseline to Week 2) was 58 and the “Total Incontinence 75% responders, Active - Placebo CMH Difference” value (baseline to Week 2) was 3.6. The “Patients with at Least 75% Reduction in Total Incontinence, Adjusted (%)” value (baseline to Week 4) was 23.5%, the “Patients with at Least 75% Reduction in Total Incontinence, Adjusted n” value (baseline to Week 4) was 75 and the “Patients with at Least 75% Reduction in Total Incontinence, Unadjusted (%)” value (baseline to Week 4) was 28.2%. The “Patients with at Least 75% Reduction in Total Incontinence, Unadjusted n” value (baseline to Week 4) was 90, the “Total Incontinence 75% responders, Active - Placebo CMH Difference” value (baseline to Week 4) was 3.7 and the “Patients with at Least 75% Reduction in Total Incontinence, Adjusted (%)” value (baseline to Week 8) was 32.5%. The “Patients with at Least 75% Reduction in Total Incontinence, Adjusted n” value (baseline to Week 8) was 104, the “Patients with at Least 75% Reduction in Total Incontinence, Unadjusted (%)” value (baseline to Week 8) was 36.4% and the “Patients with at Least 75% Reduction in Total Incontinence, Unadjusted n” value (baseline to Week 8) was 116. For the same compound, the “Total Incontinence 75% responders, Active - Placebo CMH Difference” value (baseline to Week 8) was 5.1, the “Patients with at Least 75% Reduction in Total Incontinence, Adjusted (%)” value (baseline to Week 12) was 39.9% and the “Patients with at Least 75% Reduction in Total Incontinence, Adjusted n” value (baseline to Week 12) was 127. For the same compound, the “Patients with at Least 75% Reduction in Total Incontinence, Unadjusted (%)” value (baseline to Week 12) was 45.1%, the “Patients with at Least 75% Reduction in Total Incontinence, Unadjusted n” value (baseline to Week 12) was 144 and the “Total Incontinence 75% responders, Active - Placebo CMH Difference” value (baseline to Week 12) was 8.4. For the same compound, the “UUI, Week 12 LS mean change from baseline (placebo adjusted) (95% CI)” value (shortened to “UUI, Week 12 LS mean change … (95% CI)”) (subgroup Age <65 years, vibegron 75 mg or tolterodine ER 4 mg) was −0.2 (−0.6 to 0.2), the “UUI, Week 12 LS mean change … (95% CI)” value (subgroup Age ≥65 years, vibegron 75 mg or tolterodine ER 4 mg) was −0.6 (−1.1 to −0.1) and the “UUI, Week 12 LS mean change … (95% CI)” value (subgroup Age ≥75 years (posthoc analysis), vibegron 75 mg or tolterodine ER 4 mg) was −1.6 (−2.5 to −0.7). The “UUI, Week 12 LS mean change … (95% CI)” value (subgroup Females, vibegron 75 mg or tolterodine ER 4 mg) was −0.4 (−0.7 to −0.1), the “UUI, Week 12 LS mean change … (95% CI)” value (subgroup Males, vibegron 75 mg or tolterodine ER 4 mg) was −0.5 (−1.4 to 0.4) and the “UUI, Week 12 LS mean change … (95% CI)” value (subgroup Non-White, vibegron 75 mg or tolterodine ER 4 mg) was 0.1 (−0.6 to 0.7). The “UUI, Week 12 LS mean change … (95% CI)” value (subgroup Region: Non-US, vibegron 75 mg or tolterodine ER 4 mg) was −0.6 (−1.5 to 0.2), the “UUI, Week 12 LS mean change … (95% CI)” value (subgroup Region: US, vibegron 75 mg or tolterodine ER 4 mg) was −0.3 (−0.7 to 0.0) and the “UUI, Week 12 LS mean change … (95% CI)” value (subgroup White, vibegron 75 mg or tolterodine ER 4 mg) was −0.5 (−0.8 to −0.2). For the same compound, the “average volume voided, placebo-adjusted mean change from baseline, week 12” value [3] was 13.3 mL, the “placebo-adjusted mean total daily incontinence episodes, week 12” value [3] was −0.5 episodes and the “proportion of patients (UUI responders) with 75% or more reduction in daily UUI episodes, week 12” value [3] was 42.2%. For the same compound, the “Micturitions, active-placebo LS mean difference, Week 2” value [4] was −0.3, the “Micturitions, active-placebo LS mean difference, Week 4” value [4] was −0.4 and the “Micturitions, active-placebo LS mean difference, Week 8” value [4] was −0.4. The “Micturitions, active-placebo LS mean difference, Week 12” value [4] was −0.3, the “Micturitions, average daily number, Week 2 mean” value [4] was 10.40 and the “Micturitions, average daily number, Week 4 mean” value [4] was 10.10. For the same compound, the “Micturitions, average daily number, Week 8 mean” value [4] was 9.80, the “Micturitions, average daily number, Week 12 mean” value [4] was 9.58 and the “Micturitions, change from baseline LS mean, Week 2” value [4] was −0.6. The “Micturitions, change from baseline LS mean, Week 4” value [4] was −0.9, the “Micturitions, change from baseline LS mean, Week 8” value [4] was −1.2 and the “Micturitions, change from baseline LS mean, Week 12” value [4] was −1.6. The “UUI episodes, active-placebo LS mean difference, Week 2” value [5] was −0.4, the “UUI episodes, active-placebo LS mean difference, Week 4” value [5] was −0.4 and the “UUI episodes, active-placebo LS mean difference, Week 8” value [5] was −0.4. For the same compound, the “UUI episodes, average daily number, Week 2 mean” value [5] was 2.24, the “UUI episodes, average daily number, Week 4 mean” value [5] was 2.06 and the “UUI episodes, average daily number, Week 8 mean” value [5] was 1.74. For the same compound, the “UUI episodes, average daily number, Week 12 mean” value [5] was 1.55, the “UUI episodes, change from baseline LS mean, Week 2” value [5] was −1.2 and the “UUI episodes, change from baseline LS mean, Week 4” value [5] was −1.4. The “UUI episodes, change from baseline LS mean, Week 8” value [5] was −1.6, the “UUI episodes, change from baseline LS mean, Week 12” value [5] was −1.8 and the “Time to first 75% reduction in UUI episodes, hazard ratio compared to placebo (proportional hazards)” value (vibegron 75 mg or tolterodine ER 4 mg, Cox model with sex as covariate) was 1.276. For the same compound, the “Estimated incidence of subjects with 75% decrease from baseline in UUI episodes, Week 2” value [6] was 18.8, the “Estimated incidence of subjects with 75% decrease from baseline in UUI episodes, Week 4” value [6] was 20.7 and the “Estimated incidence of subjects with 75% decrease from baseline in UUI episodes, Week 8” value [6] was 34.3. For the same compound, the “Estimated incidence of subjects with 75% decrease from baseline in UUI episodes, Week 12” value [6] was 45.7, the “First 75% reduction in UUI episodes, Events/Censored, Week 2” value [6] was 60/259 and the “First 75% reduction in UUI episodes, Events/Censored, Week 4” value [6] was 66/253. The “First 75% reduction in UUI episodes, Events/Censored, Week 8” value [6] was 107/212, the “First 75% reduction in UUI episodes, Events/Censored, Week 12” value [6] was 140/179 and the “Overall time to first 75% decrease in UUI episodes, 25th percentile” value [6] was 4.1 weeks. The “Overall time to first 75% decrease in UUI episodes, 75th percentile” value [6] was 14.2 weeks, the “Overall time to first 75% decrease in UUI episodes, median (95% CI)” value [6] was 12.1 (8.6 to 12.3) weeks and the “Time to first 75% decrease in UUI episodes, Events/Censored (overall)” value [6] was 166/153.
